{"source": "patent US20030134413A1", "about": "“Cell production” (priority 2000, published 2003)", "molecules": {"B1": {"name": "FGF4: growth factor from the FGF family (protein, UniProt P08620 31-206, looked up)", "Fibroblast growth factor 4": "APTAPNGTLEAELERRWESLVALSLARLPVAAQPKEAAVQSGAGDYLLGIKRLRRLYCNVGIGFHLQALPDGRIGGAHADTRDSLLELSPVERGVVSIFGVASRFFVAMSSKGKLYGSPFFTDECTFKEILLPNNYNAYESYKYPGMFIALSKNGKTKKGNRVSPTMKVTHFLPRL"}}, "type_in_all_cases": "cell-based, mouse", "key": {"EBM^9 explants": {"system": "EBM^9 explants", "assay": "Neural crest formation from EBM^9 explants", "protocol": "Sox 10 probes were transcribed from pSox10E.1 (obtained from Dr. Peter Koopman, IMB, Brisbane, Australia). Anti-sense and sense probes were transcribed from HindIII or BamHI cut pSox10E.1 with […] or T3 RNA polymerase respectively.\nEBM^9 were collected, washed in PBS, treated with 0.5 mM EGTA pH 7.5 for 3 minutes, washed in PBS and disaggregated to small clumps (20-200 cells) by trituration. Cell clumps were allowed to settle and single cells liberated during trituration were removed with the supernatant before plating onto tissue culture grade plasticware which had been coated with cellular fibronectin (1 μg/cm^2; obtained from M. D. Bettess, Department of Biochemistry, Adelaide University, Australia) and allowed to dry. Cells were cultured in Hams F12 containing 3% FCS and 10 ng/ml FGF2 and supplemented with either 0.1% 25 μM staurosporine (Sigma) in DMSO (final concentration, 25 nM) or 0.1% DMSO. Cellular aggregates were allowed to differentiate for 48 hours before fixation in 4% PFA for 30 minutes."}, "ES cells [1]": {"system": "ES cells", "assay": "Morphology of ES cell aggregates in suspension culture", "details": "medium supplemented with 100 units of LIF; data not shown", "protocol": "(§1) All cell aggregates were formed from single cell suspensions (1×10^5 cells/ml) of ES or EPL cells cultured in bacterial petri dishes. ES cell and EPL cell embryoid bodies (EB and EPLEB respectively) were formed as described in Lake et al. (2000). EBM, cell aggregates formed and maintained in MEDII, were formed from ES cells aggregated in IC:DMEM (DMEM (Gibco BRL #12800) with 10% foetal calf serum (FCS; Commonwealth Serum Laboratories), […] gentamycin, 1 mM L-glutamine and 0.1 mM B-mercaptoethanol (B-ME)) supplemented with 50% MEDII. Aggregates were divided 1 in 2 on days 2 and 4, and medium was changed on days 2 and 4 and then daily until collection. […] The time in days from formation of aggregates was denoted by superscript with the day of formation denoted as day 0. For example, EBM 5 days after formation are represented as EBM^5.\nFor continued suspension culture of EB and EBM, aggregates on day 7 were transferred to serum free medium (50% DMEM, 50% Hams F12 (Gibco BRL # 11765) supplemented with 1× ITSS supplement (Boehringer Mannhiem) and 10 ng/ml FGF2 (Peprotech Inc.)).\nEB^4 and EBM^4 were fixed with 4% PFA for 30 minutes before embedding in paraffin wax and sectioning as described in Hogan et al., 1994. 7 μm sections were stained with haematoxylin:eosin as described by Kaufman, 1992 or with Hoescht […] (5 μg/ml) in PBS; Sigma) for 5 minutes."}, "ES cells [2]": {"system": "ES cells", "assay": "Differentiation potential of seeded ES cell aggregates (neurons, beating cardiocytes)", "details": "10-20 ng/ml added to the medium from day 4", "protocol": "as §1\nFor adherent culture, aggregates were seeded onto gelatin treated tissue culture grade plasticware (Falcon) on day 7 of development in 500 μl DMEM supplemented with 10% FCS (Commonwealth serum Laboratories). […]\nEB^7 and EBM^7 were seeded as described above and assessed on days 8, 10, 12 and 14 for the presence of neurons, identified morphologically by the presence of axonal projections (and confirmed by the expression of NF200; data not shown), and beating cardiocytes, identified morphologically by rhythmical contraction of cells within the aggregate."}}, "data": [{"molecule": "CN[C@@H]1C[C@H]2O[C@@](C)([C@@H]1OC)n1c3ccccc3c3c4c(c5c6ccccc6n2c5c31)C(=O)NC4", "note": "[staurosporine]", "values": [{"measurement": "Sox10 expression by in situ hybridisation", "setting": "EBM^9 explants; 25 nM, 48 hours culture", "value": "observed in all cells"}, {"measurement": "morphology of EBM explants", "setting": "EBM^9 explants; 25 nM, within three hours of seeding", "value": "surrounded by a halo of differentiating cells"}, {"measurement": "concentration required for uniform differentiation", "setting": "EBM^9 explants; data not shown", "value": "greater than 10 nM"}]}, {"molecule": "LIF: cytokine leukaemia inhibitory factor", "values": [{"measurement": "morphology and gene expression profile of ES cell aggregates", "setting": "ES cells [1]", "value": "did not duplicate the morphology or gene expression profile of EBM"}]}, {"molecule": "B1", "values": [{"measurement": "influence on the outcome of differentiation", "setting": "ES cells [2]", "value": "did not influence the outcome of differentiation"}]}]}
